Molecules are shown by their SMILES. pIC50: −log10 of the molar value. Calls of active or inactive are those of the source. No cut-off for these calls is given here.

Drawing on ChEMBL document CHEMBL1159123, “Molecular design of N-linked tetravalent glycosides bearing N-acetylglucosamine, N,N'-diacetylchitobiose and N-acetyllactosamine: Analysis of cross-linking activities with WGA and ECA lectins” (Bioorg Med Chem, 2010), this text covers IC50 and Activity for nine compounds.

A short description of test [1]: Inhibition of Erythrina variegata agglutinin-mediated hemagglutinination of rabbit erythrocytes.
Test [2] has as its system Triticum aestivum. Nature of the test: Binding affinity to wheat-germ agglutinin assessed as precipiting bands by double diffusion test.
Test [3] has as its system Erythrina variegata. Nature of the test: Binding affinity to Erythrina variegata agglutinin assessed as precipitation by UV detection based precipitation analysis.
Test [4] in a line: Inhibition of wheat-germ agglutinin-mediated hemagglutinination of rabbit erythrocytes. The arrangement: species or system Triticum aestivum.
Test [5] concerns Triticum aestivum. Description: Binding affinity to wheat-germ agglutinin assessed as increase in response units by surface plasmon resonance. A general note: In SPR one partner is held on a chip, and binding of the other changes the refractive index at the surface.
In test [6] the test system is Erythrina variegata. Nature of the test: Binding affinity to Erythrina variegata agglutinin assessed as precipiting bands by double diffusion test.
The subject of test [7] is Triticum aestivum. Description: Binding affinity to wheat-germ agglutinin assessed as precipitation by UV detection based precipitation analysis.

Regarding `CC(=O)N[C@@H]1[C@@H](O)[C@H](O[C@@H]2O[C@H](CO)[C@H](O)[C@H](O)[C@H]2O)[C@@H](CO)O[C@H]1NC(=O)CCCCCC(=O)N[C@@H]1O[C@H](CO)[C@@H](O[C@@H]2O[C@H](CO)[C@H](O)[C@H](O)[C@H]2O)[C@H](O)[C@H]1NC(C)=O`, the negative-log IC50 (pIC50) (usually −log10 of the IC50, conventionally taken in molar units) in test [1] was 4.33.

`CC(=O)N[C@@H]1[C@@H](O)[C@H](O)[C@@H](CO)O[C@H]1NC(=O)CN(CCOCCOCCN(CC(=O)N[C@@H]1O[C@H](CO)[C@@H](O)[C@H](O)[C@H]1NC(C)=O)CC(=O)N[C@@H]1O[C@H](CO)[C@@H](O)[C@H](O)[C@H]1NC(C)=O)CC(=O)N[C@@H]1O[C@H](CO)[C@@H](O)[C@H](O)[C@H]1NC(C)=O`: the result with Triticum aestivum [2] and with Erythrina variegata [3] was inactive. Besides, in test [4], the pIC50 was less than 2.40. Also, in the test with Triticum aestivum [5], the Activity result is “Dose-dependent effect”.

Consider `CC(=O)N[C@@H]1[C@@H](O)[C@H](O[C@@H]2O[C@H](CO)[C@H](O)[C@H](O)[C@H]2O)[C@@H](CO)O[C@H]1O`, for which the pIC50 in test [1] was 4.03.

`CC(=O)N[C@@H]1[C@@H](O)[C@H](O[C@@H]2O[C@H](CO)[C@H](O)[C@H](O)[C@H]2O)[C@@H](CO)O[C@H]1NC(=O)CN(CCOCCOCCN(CC(=O)N[C@@H]1O[C@H](CO)[C@@H](O[C@@H]2O[C@H](CO)[C@H](O)[C@H](O)[C@H]2O)[C@H](O)[C@H]1NC(C)=O)CC(=O)N[C@@H]1O[C@H](CO)[C@@H](O[C@@H]2O[C@H](CO)[C@H](O)[C@H](O)[C@H]2O)[C@H](O)[C@H]1NC(C)=O)CC(=O)N[C@@H]1O[C@H](CO)[C@@H](O[C@@H]2O[C@H](CO)[C@H](O)[C@H](O)[C@H]2O)[C@H](O)[C@H]1NC(C)=O`: the pIC50 was 5.92 in test [1] and less than 2.40 in test [4]. Besides, the outcome in the test with Triticum aestivum [2] and with Triticum aestivum [7] was inactive. Besides, the outcome in the test on Erythrina variegata [6] and in the test on Erythrina variegata [3] was Active.

As to `CC(=O)N[C@@H]1[C@@H](O)[C@H](O[C@@H]2O[C@H](CO)[C@@H](O)[C@H](O)[C@H]2NC(C)=O)[C@@H](CO)O[C@H]1NC(=O)CN(CCOCCOCCN(CC(=O)N[C@@H]1O[C@H](CO)[C@@H](O[C@@H]2O[C@H](CO)[C@@H](O)[C@H](O)[C@H]2NC(C)=O)[C@H](O)[C@H]1NC(C)=O)CC(=O)N[C@@H]1O[C@H](CO)[C@@H](O[C@@H]2O[C@H](CO)[C@@H](O)[C@H](O)[C@H]2NC(C)=O)[C@H](O)[C@H]1NC(C)=O)CC(=O)N[C@@H]1O[C@H](CO)[C@@H](O[C@@H]2O[C@H](CO)[C@@H](O)[C@H](O)[C@H]2NC(C)=O)[C@H](O)[C@H]1NC(C)=O`, the result in the test on Triticum aestivum [2] was Active. For the same compound, the outcome in the test with Erythrina variegata [3] was inactive. In test [4], this compound gave a pIC50 of 5.23. In addition, the Activity result in the test with Triticum aestivum [5] was “Dose-dependent effect”.

Consider `CC(=O)N[C@@H]1[C@@H](O)[C@H](O[C@@H]2O[C@H](CO)[C@@H](O)[C@H](O)[C@H]2NC(C)=O)[C@@H](CO)O[C@H]1NC(=O)CCCCCNC(=O)CN(CCOCCOCCN(CC(=O)NCCCCCC(=O)N[C@@H]1O[C@H](CO)[C@@H](O[C@@H]2O[C@H](CO)[C@@H](O)[C@H](O)[C@H]2NC(C)=O)[C@H](O)[C@H]1NC(C)=O)CC(=O)NCCCCCC(=O)N[C@@H]1O[C@H](CO)[C@@H](O[C@@H]2O[C@H](CO)[C@@H](O)[C@H](O)[C@H]2NC(C)=O)[C@H](O)[C@H]1NC(C)=O)CC(=O)NCCCCCC(=O)N[C@@H]1O[C@H](CO)[C@@H](O[C@@H]2O[C@H](CO)[C@@H](O)[C@H](O)[C@H]2NC(C)=O)[C@H](O)[C@H]1NC(C)=O`, for which the outcome with Triticum aestivum [2] was Active. Also, the outcome in the test with Erythrina variegata [3] was inactive. For the same compound, in test [4], the pIC50 was 6.74. Moreover, in the test with Triticum aestivum [5], the Activity entry was “Dose-dependent effect”.

The compound `CC(=O)N[C@@H]1[C@@H](O)[C@H](O[C@@H]2O[C@H](CO)[C@H](O)[C@H](O)[C@H]2O)[C@@H](CO)O[C@H]1NC(=O)CCCCCNC(=O)CN(CCOCCOCCN(CC(=O)NCCCCCC(=O)N[C@@H]1O[C@H](CO)[C@@H](O[C@@H]2O[C@H](CO)[C@H](O)[C@H](O)[C@H]2O)[C@H](O)[C@H]1NC(C)=O)CC(=O)NCCCCCC(=O)N[C@@H]1O[C@H](CO)[C@@H](O[C@@H]2O[C@H](CO)[C@H](O)[C@H](O)[C@H]2O)[C@H](O)[C@H]1NC(C)=O)CC(=O)NCCCCCC(=O)N[C@@H]1O[C@H](CO)[C@@H](O[C@@H]2O[C@H](CO)[C@H](O)[C@H](O)[C@H]2O)[C@H](O)[C@H]1NC(C)=O` showed a pIC50 in test [1] of 5.23. For the same compound, the outcome in the test with Triticum aestivum [2] and in the test with Triticum aestivum [7] was inactive. For the same compound, the outcome in the test with Erythrina variegata [6] and with Erythrina variegata [3] was Active.

For the compound `CC(=O)N[C@@H]1[C@@H](O)[C@H](O)[C@@H](CO)O[C@H]1NC(=O)CCCCCNC(=O)CN(CCOCCOCCN(CC(=O)NCCCCCC(=O)N[C@@H]1O[C@H](CO)[C@@H](O)[C@H](O)[C@H]1NC(C)=O)CC(=O)NCCCCCC(=O)N[C@@H]1O[C@H](CO)[C@@H](O)[C@H](O)[C@H]1NC(C)=O)CC(=O)NCCCCCC(=O)N[C@@H]1O[C@H](CO)[C@@H](O)[C@H](O)[C@H]1NC(C)=O`, the outcome in the test with Triticum aestivum [2] was Active. Besides, the outcome with Erythrina variegata [3] was inactive. In test [4], this compound had a negative-log IC50 (pIC50) of 4.33. For the same compound, the Activity result with Triticum aestivum [5] is “Dose-dependent effect”.

Compound `CC(=O)N[C@H]1[C@H](O[C@H]2[C@H](O)[C@@H](NC(C)=O)C(O)O[C@@H]2CO)O[C@H](CO)[C@@H](O)[C@@H]1O` (stereo not given in full) gave a pIC50 in test [4] of 3.12.
